Tests used:
Format in all cases: cell-based
[1] = test system: human bone marrow MSC; assay: VEGF-A gene expression in MSC by qRT-PCR
Description: Conditioned media was assayed for VEGF by ELISA after 24 hours of treprostinil exposure (n=4 replicates). Cells from those replicates were lysed, and RNA was extracted to determine VEGF-A gene expression by qRT-PCR. Cells from the remaining two (2) replicates were trypsinized, and assayed for cell viability by trypan blue exclusion. Cell culture supernatant was assayed for VEGF protein by ELISA (FIG. 3A, n=4). Cell lysates from those cultures were assayed for VEGF-A gene expression by qRT-PCR, and normalized to the control value (FIG. 3B, n=4). In both figures, error bars represent the standard deviation in each test group. To characterize the effect of treprostinil on MSC, cells were analyzed by qRT-PCR and microarray to identify changes in gene expression (4). Cell culture supernatant media was assayed for selected inflammatory cytokines by bead-based immunoassays (2). Secreted vesicles were isolated from cell culture supernatant, and assayed for RNA content by qRT-PCR (7). Vesicles were also assayed for size and concentration by tunable resistive pulse sensing, or TRPS (7) (refer to Example 4).

[2] = test system: human bone marrow MSC; assay: RNA content of MSC-derived exosomes by qRT-PCR; details: 250 μg/mL
Description: After 24 hours of culture, representative images were captured from (+) Tre and (−) Tre cultures. Conditioned media was collected from each replicate, divided into two samples of appropriate volumes, and analyzed separately for: 1) secreted proteins (Myriad RBM InflammationMAP® 1.0) and 2) exosome RNA content. Cells were lysed directly from culture flasks, processed for total RNA isolation, and analyzed for gene expression by microarray (Illumina Human HT12 Expression BeadChip). To characterize the effect of treprostinil on MSC, cells were analyzed by qRT-PCR and microarray to identify changes in gene expression (4). Cell culture supernatant media was assayed for selected inflammatory cytokines by bead-based immunoassays (2). Secreted vesicles were isolated from cell culture supernatant, and assayed for RNA content by qRT-PCR (7). Vesicles were also assayed for size and concentration by tunable resistive pulse sensing, or TRPS (7) (refer to Example 4). Total RNA was extracted from exosomal preparations, and qRT-PCR was performed with the same primer/probe sets used in experiments with the parent cells (refer to FIG. 8). VEGF-A gene transcripts present in MSC-derived exosomes were increased ˜4-fold as a result of treprostinil exposure (FIG. 10).

[3] = test system: human bone marrow MSC; assay: Bead-based immunoassay (Luminex) of cytokines in MSC culture supernatant; details: 250 μg/mL, 24 h
Description: Human bone marrow MSC were expanded and seeded into six (6) T225 flasks using standard growth medium (Table 1). At 95-99% confluency, cells were thoroughly washed with PBS. Three (3) flasks were replenished with basal media containing 250 μg/mL treprostinil, (+)Tre, and the remaining three (3) flasks were replenished with unsupplemented basal media, (−)Tre. After 24 hours of culture, representative images were captured from (+) Tre and (−) Tre cultures. Conditioned media was collected from each replicate, divided into two samples of appropriate volumes, and analyzed separately for: 1) secreted proteins (Myriad RBM InflammationMAP® 1.0) and 2) exosome RNA content. Cells were lysed directly from culture flasks, processed for total RNA isolation, and analyzed for gene expression by microarray (Illumina Human HT12 Expression BeadChip). Bead-based immunoassays (Luminex) was performed to assess the concentration of 46 cytokines in cell culture supernatants (Myriad RBM Human InflammationMAP® 1.0). Of the 46 evaluated, 6 were differentially secreted in treprostinil-treated and -untreated MSC cultures (see Table 6, n=3 per group). Asterisks indicate statistical significance between the groups based on a Student's T Test (*p<0.001, or **p<0.0001).

[4] = 24 h (FIG. 8, lower panel), p<0.05

CCCCC[C@H](O)CC[C@@H]1[C@H]2Cc3cccc(OCC(=O)O)c3C[C@H]2C[C@H]1O [treprostinil]
VEGF-A gene expression vs untreated controls ([1]; 100 μg/mL, 24 h): not significantly different from untreated controls
VEGF-A gene expression, fold increase ([1]; 200 μg/mL, 24 h): over 5 fold
VEGF-A expression, fold over untreated controls (qRT-PCR) ([1]; 250 μg/mL, 24 h (FIG. 8, upper panel)): ~3.5 fold
let-7b abundance vs controls [2, 4]: less prevalent
miR-21 abundance vs controls [2, 4]: more abundant
VEGF-A gene transcripts in MSC-derived exosomes, fold increase ([2]; 24 h (FIG. 10)): ~4 fold
miR-21 in MSC-derived exosomes ([2]; 24 h (FIG. 10), p<0.05): significantly more abundant
miR-199-3p in MSC-derived exosomes ([2]; 24 h (FIG. 10), p<0.05): significantly more abundant
IL-6 production, fold more compared to control MSC [3]: ~50 fold
MCP-1 secretion, fold less than control MSC [3]: 6-7 fold
Interleukin-8 (IL-8) secretion ([3]; DECREASED vs (−) Treprostinil 2.4 +/− 1.0 pg/ml): Below detection
Tissue Inhibitor of Metalloproteinases 1 (TIMP-1) secretion ([3]; DECREASED vs (−) Treprostinil 29 +/− 3 ng/ml, p<0.001): 12 ± 1 ng/mL
Monocyte Chemotactic Protein 1 (MCP-1) secretion ([3]; DECREASED vs (−) Treprostinil 379 +/− 35 pg/ml, p<0.0001): 47 ± 9 pg/mL
Ferritin (FRTN) secretion ([3]; INCREASED vs (−) Treprostinil 0.70 +/− 0.11 ng/mL): 0.96 ± 0.01 ng/mL
Interleukin-6 (IL-6) secretion ([3]; INCREASED vs (−) Treprostinil 62 +/− 6 pg/ml, p<0.0001): 3580 ± 384 pg/mL
Vascular Endothelial Growth Factor (VEGF) secretion ([3]; INCREASED vs (−) Treprostinil 235 +/− 16 pg/ml, p<0.0001): 612 ± 37 pg/mL

Source: US12274684B2, “Treatment of vasculopathy with prostacyclin and mesenchymal stem cells” (United Therapeutics Corporation, priority 2013, dated 2025)
